Data taken from patent US12311019B2, “Vaccine composition and uses thereof” (Imugene Limited, priority 2018, dated 2025).
“Also recorded” adds a separate entry of the source.

Experiments:
[1] = test system: PD1 protein from other species—mouse, rat, Rhesus monkey, Cynomolgus monkey and canine; assay: Cross-reactivity ELISAs, summary over species; type: binding; conditions: for cross-reactivity of affinity-purified anti-PD1 antibodies from animals immunised with the peptide with PD1 protein from other species: mouse, rat, Rhesus monkey, Cynomolgus monkey and canine
Experimental: To assess whether or not the anti-human PD1 antibodies raised in the immunised rabbits would cross-react with PD1 of other species, the anti-PD1 antisera from the Examples 7 and 8, above, were screened in an ELISA assay for binding to mouse, rhesus monkey, canine and rat PD1 proteins.
A further ELISA assay was performed to make a direct comparison of the cross-reactivity of anti-human PD1 antibodies raised in the immunised rabbits (Rabbits 1 and 2) to PD1 proteins of different species.

[2] = biological target: PD1 (SEQ ID NO:1) conjugated to a His tag (Homo sapiens, UniProt Q15116); assay: ELISA of anti-PD1 antibody titre in immunised rabbits on PD1 coated plates; type: binding; conditions: for anti-PD1 antibody response / titre raised in immunised rabbits (in words): rabbits immunised with KLH-conjugated peptide in Freund's adjuvant
Experimental: Approximately 250-500 μg of each KLH-conjugated peptide fragment was diluted with saline and subsequently emulsified in complete or incomplete Freund's adjuvant at a mass ratio of 1:1. The emulsified solution was administered to rabbits by subcutaneous injection around the shoulders and intramuscular injection into the legs in accordance with the following immunization protocol: • i. Day 00—Serum collected 2 ml (for 0.5-1.0 ml pre-immune serum; • ii. Day 01—1st-immunization, complete Freund's adjuvant, 500 μg peptide fragment; • iii. Day 15—2nd-immunization, complete Freund's adjuvant, 500 μg peptide fragment; • iv. Day 29—3rd-immunization, incomplete Freund's adjuvant, 250 μg peptide fragment; • v. Day 35—Serum collected, 2-3 ml for assessment of anti-PD1 antibody titre by ELISA; • vi. Day 36—4th-immunization, incomplete Freund's adjuvant, 250 μg peptide fragment (optional); • vii. Day 43—5th-immunization, incomplete Freund's adjuvant. 250 μg peptide fragment (optional); • viii. Day 50—6th-immunization, incomplete Freund's adjuvant 250 μg peptide fragment (optional); • ix. Day 57—7th-immunization, incomplete Freund's adjuvant 250 μg peptide fragment (optional); • x. Day 63—Blood sample is collected from the immunised rabbits. B. Assessment of Anti-PDJ Antibody Titre in Immunised Rabbits by ELISA
An enzyme-linked immunosorbent assays (ELISA) was used to measure the anti-PD1 antibody titre in the blood samples collected from the immunized rabbits. Briefly, microtiter plates were coated with PD1 (SEQ ID NO:1) conjugated to a His tag. After blocking the wells of the microtiter plates with BSA to minimise non-specific binding, diluted sera from the immunized rabbits were added to the plates and incubated on a shaker for around 1 hr at 20° C. (or alternatively overnight at 4° C.). The plates were then washed four times with PBS/0.1% v/v Tween 20 and excess wash buffer was removed from each well.
Approximately 100 μL of a horseradish peroxidase-labeled anti-rabbit antibody was then added to each well and incubated for around 1 hr at 20° C. The plates were then washed four times with PBS/0.1% v/v Tween 20 and excess wash buffer was removed from each well. The plates were then washed twice with PBS only, to remove traces of Tween remaining from the washing buffer.
To detect the presence of horseradish peroxidase-labeled, anti-rabbit antibody, 100 μL of 1-Step™ ABTS (Pierce Cat. No. 37615) was added to each well and incubated for up to 45 min at 20° C. The absorbance of any colour change in each well was read using a microtitre Titertek Multiskan MC plate reader in the dual wavelength mode at 405 nm against a reference wavelength of 492 nm and compared to appropriate negative controls, such as the colour change observed in a well to which no PD1 was added, to which no immunised rabbit sera was added and/or to which no horseradish peroxidase-labeled, anti-rabbit antibody was added.
Approximately 250-500 μg of each KLH-conjugated fusion peptides were diluted with saline and subsequently emulsified in complete or incomplete Freund's adjuvant at a mass ratio of 1:1. The emulsified solutions were administered to rabbits by subcutaneous injection around the shoulders and intramuscular injection into the legs in accordance with the immunization protocol of Example 2, above.
An enzyme-linked immunosorbent assays (ELISA) was used to measure the anti-PD1 antibody titre in the blood samples collected from the immunized rabbits, in accordance with the methodology set out in Example 2 above. The absorbance readings from the ELISA assay are shown in Table 8, below (SEQ TD NO:9 is underlined): […]

PD1 (SEQ ID NO:1) conjugated to a His tag, sequence (Q15116 25-170): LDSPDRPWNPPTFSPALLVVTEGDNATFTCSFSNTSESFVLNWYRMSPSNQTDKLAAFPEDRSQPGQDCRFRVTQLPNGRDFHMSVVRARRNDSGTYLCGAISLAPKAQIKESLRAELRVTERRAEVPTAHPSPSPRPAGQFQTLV

Sequence	species of greatest cross-reactivity of the anti-PD1 antibodies raised with the peptide [1]	cross-reactivity of affinity-purified anti-PD1 antibodies from animals immunised with the peptide with PD1 protein from other species [1]	anti-PD1 antibody response / titre raised in immunised rabbits (in words) [2]	anti-PD1 antibody titre compared to the other peptide sequences ([2]; immunised rabbits)
GWFLDSPDRPWNGAISLAPKAQIK (listed as Homo sapiens) [SEQ ID NO:56]	greatest cross-reactivity to PD1 protein from Rhesus and Cynomolgus monkeys	at least some cross-reactivity	Anti-PD1 antibodies were also raised	–
FPEDRSQPGQDC (listed as Homo sapiens) [SEQ ID NO:29]	greatest cross-reactivity to PD1 protein from Rhesus and Cynomolgus monkeys	at least some cross-reactivity	raising an anti-PD1 antibody response; also recorded: sufficient anti-PD1 antibody titres	–
GAISLAPKAQIKGWFLDSPDRPWN (listed as Homo sapiens) [SEQ ID NO:57]	greatest cross-reactivity to PD1 protein from Rhesus and Cynomolgus monkeys	at least some cross-reactivity	Anti-PD1 antibodies were also raised	–
LAAFPEDRSQPG (listed as Homo sapiens) [SEQ ID NO:28]	greatest cross-reactivity to PD1 protein from Rhesus and Cynomolgus monkeys	at least some cross-reactivity	raising an anti-PD1 antibody response; also recorded: sufficient anti-PD1 antibody titres	–
GWFLDSPDRPWN (listed as Homo sapiens) [SEQ ID NO:9]	greatest cross-reactivity to PD1 protein from Rhesus and Cynomolgus monkeys	at least some cross-reactivity	raising an anti-PD1 antibody response; also recorded: sufficient anti-PD1 antibody titres	highest anti-PD1 antibody titre; also recorded: higher anti-PD1 antibody titre
LRVTERRAEVPT (listed as Homo sapiens) [SEQ ID NO:49]	greatest cross-reactivity to PD1 protein from Rhesus and Cynomolgus monkeys	at least some cross-reactivity	raising an anti-PD1 antibody response; also recorded: sufficient anti-PD1 antibody titres	–
FSPALLVVTEGD (listed as Homo sapiens) [SEQ ID NO:14]	greatest cross-reactivity to PD1 protein from Rhesus and Cynomolgus monkeys	at least some cross-reactivity	raising an anti-PD1 antibody response; also recorded: sufficient anti-PD1 antibody titres	–
YLSGAISLAPKA (listed as Homo sapiens) [SEQ ID NO:61]	greatest cross-reactivity to PD1 protein from Rhesus and Cynomolgus monkeys	at least some cross-reactivity	raising an anti-PD1 antibody response; also recorded: sufficient anti-PD1 antibody titres	–
GAISLAPKAQIK (listed as Homo sapiens) [SEQ ID NO:43]	greatest cross-reactivity to PD1 protein from Rhesus and Cynomolgus monkeys	at least some cross-reactivity	raising an anti-PD1 antibody response; also recorded: sufficient anti-PD1 antibody titres	–
LDSPDRPWNPPT (listed as Homo sapiens) [SEQ ID NO:10]	greatest cross-reactivity to PD1 protein from Rhesus and Cynomolgus monkeys	at least some cross-reactivity	raising an anti-PD1 antibody response; also recorded: sufficient anti-PD1 antibody titres	–
NWYRMSPSNQTD (listed as Homo sapiens) [SEQ ID NO:59]	greatest cross-reactivity to PD1 protein from Rhesus and Cynomolgus monkeys	at least some cross-reactivity	raising an anti-PD1 antibody response; also recorded: sufficient anti-PD1 antibody titres	–
